Test systems include A498; ACHN; BT-549; CAKI-1; CCRF-CEM; HT-29; K562; LOX IMVI; M14; MCF7; MDA-MB-231; NCI-H23; OVCAR-3; OVCAR-8; PC-3; SF-539; SK-OV-3; SN12C; UACC-257.
What all share (assay): NCI anticancer screen, dose series, 48 h

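Each compound was tested at five concentrations against cells in 96-well plates for 48 hours. GI50 = concentration required for 50% inhibition of growth.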 Calls of active or inactive are those of the source. Rule as the data show it: active = GI50 up to about 1.1 µM and inactive = higher. A value given as a limit tells only on which side of the number the result lay.

For `O=C1NC(=O)C2(CCCCCC2)N1`, the GI50 in the assay on A498, with ACHN, in the assay with BT-549, in the assay on CAKI-1, with CCRF-CEM and in the assay with HT-29 was > 100 µM (inactive) each time. Further, the GI50 in the assay on K562, with LOX IMVI, in the assay on M14, in the assay with MCF7, in the assay on MDA-MB-231 and in the assay on NCI-H23 was > 100 µM (inactive) each time. Further, the GI50 in the assay on OVCAR-3, with OVCAR-8, in the assay on PC-3, in the assay on SF-539, in the assay with SK-OV-3 and in the assay with SN12C was > 100 µM (inactive) each time. The GI50 with UACC-257 is > 100 µM (inactive).
For `COC(=O)c1ccc(NCc2c(O)ccc(O)c2Br)cc1Cl`, the GI50 was > 100 µM (inactive) in the assay on A498; 15.6 µM (inactive) in the assay on ACHN; 11.2 µM (inactive) in the assay with BT-549; 15.8 µM (inactive) with CAKI-1; 0.367 µM (active) with CCRF-CEM; 20.7 µM (inactive) with HT-29. Also, the GI50 in the assay with K562 is 1.78 µM (inactive); in the assay on LOX IMVI, 13 µM (inactive); in the assay with M14, 17.5 µM (inactive); in the assay with MCF7 it was 16 µM (inactive); with MDA-MB-231, 15.2 µM (inactive); with NCI-H23, 16.6 µM (inactive). Besides, the GI50 with OVCAR-3 was 8.77 µM (inactive); in the assay with OVCAR-8, 14.7 µM (inactive); with PC-3, 13.8 µM (inactive); in the assay with SF-539 it was 14.2 µM (inactive); with SK-OV-3, > 100 µM (inactive); with SN12C it was 12.6 µM (inactive). The GI50 in the assay with UACC-257 is 25.2 µM (inactive).
Regarding `CN(C)/N=C/c1cn(C)c(=O)n(C)c1=O`, the GI50 with A498, in the assay with ACHN, in the assay with BT-549, in the assay on CAKI-1, in the assay with CCRF-CEM and with HT-29 was > 100 µM (inactive) in each case. Besides, the GI50 in the assay with K562, in the assay on LOX IMVI, with M14, in the assay on MCF7, with MDA-MB-231 and with NCI-H23 was > 100 µM (inactive) throughout. Also, the GI50 with OVCAR-3, in the assay with OVCAR-8, in the assay with PC-3, in the assay with SF-539, in the assay on SK-OV-3 and in the assay with SN12C was > 100 µM (inactive) each time. Besides, in the assay on UACC-257, the GI50 is > 100 µM (inactive).
In the case of `CC(C)CC(=O)OC[n+]1cccc(-c2c(COC(=O)NC(C)C)c(COC(=O)NC(C)C)c3n2CCC3)c1`, the GI50 is 23.3 µM (inactive) with A498; 24.9 µM (inactive) with ACHN; 77.3 µM (inactive) in the assay with BT-549; 17.2 µM (inactive) with CAKI-1; 34.1 µM (inactive) in the assay with CCRF-CEM; 52.6 µM (inactive) in the assay on HT-29. Also, the GI50 in the assay with K562 is 51.9 µM (inactive); in the assay with LOX IMVI, 26.8 µM (inactive); in the assay on M14 it was 61.4 µM (inactive); in the assay with MCF7 it was 45.1 µM (inactive); in the assay with MDA-MB-231, 37.4 µM (inactive); in the assay with NCI-H23, 31.1 µM (inactive). Besides, the GI50 was > 100 µM (inactive) with OVCAR-3; 48.8 µM (inactive) in the assay with OVCAR-8; 48.1 µM (inactive) in the assay on PC-3; 37.5 µM (inactive) with SF-539; 55.3 µM (inactive) in the assay on SK-OV-3; 36.9 µM (inactive) in the assay with SN12C. Further, the GI50 with UACC-257 was > 100 µM (inactive).
For the molecule `CCCCCCCCCCCCCCCC(=O)OC1C(O)C(O)C(O)C(O)C12CO2` (centres undefined), the GI50 with A498 is > 100 µM (inactive); with ACHN, 24.4 µM (inactive); in the assay on BT-549, 24.2 µM (inactive); in the assay with CAKI-1, 13.6 µM (inactive); in the assay on CCRF-CEM it was 7.94 µM (inactive); in the assay on HT-29, 45.4 µM (inactive). Moreover, the GI50 is 24.7 µM (inactive) with K562; 20.3 µM (inactive) in the assay with LOX IMVI; > 100 µM (inactive) in the assay on M14; 16.2 µM (inactive) with MCF7; 34.4 µM (inactive) in the assay on MDA-MB-231; 49.2 µM (inactive) in the assay with NCI-H23. Besides, the GI50 is 24.6 µM (inactive) in the assay with OVCAR-3; 22.8 µM (inactive) in the assay on OVCAR-8; 20.9 µM (inactive) with PC-3; 25.8 µM (inactive) with SF-539; 51.4 µM (inactive) in the assay with SK-OV-3; 17.5 µM (inactive) in the assay on SN12C. The GI50 in the assay with UACC-257 was > 100 µM (inactive).
Take `COc1ccc(/C(CC2OC(=O)c3ccccc32)=N\NC(N)=O)cc1` (centres undefined): the GI50 in the assay with A498, with ACHN, in the assay on BT-549, in the assay with CAKI-1, with CCRF-CEM and in the assay with HT-29 was > 100 µM (inactive) in each case. The GI50 in the assay on K562, with LOX IMVI, in the assay with M14, in the assay with MCF7, in the assay with MDA-MB-231 and with NCI-H23 was > 100 µM (inactive) throughout. The GI50 with OVCAR-3, in the assay on OVCAR-8, with PC-3, in the assay with SF-539, with SK-OV-3 and in the assay with SN12C was > 100 µM (inactive) throughout. The GI50 with UACC-257 is > 100 µM (inactive).
For `CN(C)CCCNc1cnc2cc3ccccc3cc2n1`, the GI50 with A498 is 17.5 µM (inactive); in the assay with ACHN, 31.2 µM (inactive); in the assay on BT-549, 15.3 µM (inactive); in the assay on CAKI-1, 22.4 µM (inactive); with CCRF-CEM, 42 µM (inactive); in the assay on HT-29, 15 µM (inactive). Further, the GI50 in the assay with K562 is 25.4 µM (inactive); with LOX IMVI, 14.3 µM (inactive); with M14 it was 21.4 µM (inactive); with MCF7, 21.3 µM (inactive); in the assay on MDA-MB-231, 16.4 µM (inactive); in the assay on NCI-H23, 25.1 µM (inactive). The GI50 is 17.6 µM (inactive) with OVCAR-3; 19.6 µM (inactive) with OVCAR-8; 15.4 µM (inactive) in the assay on PC-3; 23.5 µM (inactive) in the assay with SF-539; 55.1 µM (inactive) in the assay on SK-OV-3; 33.1 µM (inactive) in the assay with SN12C. For the same molecule, the GI50 in the assay on UACC-257 is 19.2 µM (inactive).
Turning to `O=[N+]([O-])c1cc(Cl)ccc1S(=O)(=O)c1ccccc1`, the GI50 in the assay on A498 was > 100 µM (inactive); in the assay on ACHN, > 100 µM (inactive); in the assay on BT-549 it was 60.7 µM (inactive); in the assay with CAKI-1 it was > 100 µM (inactive); with CCRF-CEM it was 29.8 µM (inactive); with HT-29, 74.6 µM (inactive). In addition, the GI50 in the assay on K562 was 65.6 µM (inactive); with LOX IMVI it was 27.6 µM (inactive); in the assay with M14, > 100 µM (inactive); with MCF7 it was > 100 µM (inactive); with MDA-MB-231, 51.3 µM (inactive); with NCI-H23, 54.1 µM (inactive). In addition, the GI50 with OVCAR-3, in the assay on OVCAR-8, in the assay on PC-3, with SF-539, in the assay with SK-OV-3 and with SN12C was > 100 µM (inactive) throughout. Further, the GI50 with UACC-257 was 34 µM (inactive).
`Nc1cccc(OCC2CCCN3CCCCC23)c1` (centres undefined): the GI50 with A498 is 14.4 µM (inactive); in the assay on ACHN, 18 µM (inactive); in the assay on BT-549, 17.1 µM (inactive); with CAKI-1 it was 17.6 µM (inactive); with CCRF-CEM, 15.2 µM (inactive); in the assay with HT-29 it was 12.6 µM (inactive). The GI50 with K562 is 22 µM (inactive); in the assay on LOX IMVI it was 15.8 µM (inactive); in the assay on M14, 20 µM (inactive); in the assay on MCF7 it was 19.5 µM (inactive); in the assay with MDA-MB-231 it was 17.2 µM (inactive); in the assay with NCI-H23, 17.7 µM (inactive). Also, the GI50 with OVCAR-3 is 16.9 µM (inactive); in the assay with OVCAR-8, 18.7 µM (inactive); in the assay on PC-3, 16.9 µM (inactive); with SF-539 it was 18.3 µM (inactive); with SK-OV-3, 72.9 µM (inactive); in the assay with SN12C, 16.7 µM (inactive). In addition, the GI50 in the assay with UACC-257 is 19 µM (inactive).
Regarding `Cc1nc(C)c(N2CCN(S(N)(=O)=O)CC2)c(O)n1`, the GI50 with A498, in the assay on ACHN, in the assay on BT-549, in the assay with CAKI-1, in the assay with CCRF-CEM and in the assay on HT-29 was > 100 µM (inactive) each time. Also, the GI50 in the assay on K562, with LOX IMVI, with M14, in the assay on MCF7, in the assay on MDA-MB-231 and in the assay with NCI-H23 was > 100 µM (inactive) in each case. The GI50 with OVCAR-3, with OVCAR-8, in the assay with PC-3, in the assay on SF-539, in the assay with SK-OV-3 and in the assay with SN12C was > 100 µM (inactive) throughout. Moreover, the GI50 with UACC-257 is > 100 µM (inactive).
Take `CC(C)NC(=O)OCc1c(COC(=O)NC(C)C)n(C)c2c1ccc1ccccc12`: the GI50 is 1.57 µM (inactive) in the assay on A498; 1.48 µM (inactive) with ACHN; 0.398 µM (active) with BT-549; 0.542 µM (active) in the assay on CAKI-1; 0.112 µM (active) in the assay on CCRF-CEM; 3.34 µM (inactive) in the assay with HT-29. The GI50 is 0.171 µM (active) in the assay with K562; 1.16 µM (inactive) in the assay with LOX IMVI; 1.63 µM (inactive) in the assay with M14; 0.57 µM (active) in the assay with MCF7; 1.57 µM (inactive) in the assay with MDA-MB-231; 1.54 µM (inactive) with NCI-H23. Further, the GI50 is 2.97 µM (inactive) in the assay with OVCAR-3; 1.8 µM (inactive) in the assay with OVCAR-8; 4.43 µM (inactive) in the assay with PC-3; 1.68 µM (inactive) with SF-539; 9.82 µM (inactive) with SK-OV-3; 2.02 µM (inactive) with SN12C. The GI50 with UACC-257 is 1.52 µM (inactive).

Source of the values: ChEMBL document CHEMBL1201862, “PubChem BioAssay data set” (2004).
